Source: US20090117563A1, “Identification of TRPML3 (MCOLN3) as a Salty Taste Receptor and Use in Assays for Identifying Taste (Salty) Modulators and/or Therapeutics that Modulate Sodium Transport, Absorption or Excretion and/or Aldosterone and/or Vasopressin Production or Release” (priority 2007, published 2009)

Molecular target: T1, A419P TRPML3 (Homo sapiens, UniProt Q8TDD5, A419P)
T1 construct: expressed in transfected cells
T1 sequence (Q8TDD5 1-553 A419P): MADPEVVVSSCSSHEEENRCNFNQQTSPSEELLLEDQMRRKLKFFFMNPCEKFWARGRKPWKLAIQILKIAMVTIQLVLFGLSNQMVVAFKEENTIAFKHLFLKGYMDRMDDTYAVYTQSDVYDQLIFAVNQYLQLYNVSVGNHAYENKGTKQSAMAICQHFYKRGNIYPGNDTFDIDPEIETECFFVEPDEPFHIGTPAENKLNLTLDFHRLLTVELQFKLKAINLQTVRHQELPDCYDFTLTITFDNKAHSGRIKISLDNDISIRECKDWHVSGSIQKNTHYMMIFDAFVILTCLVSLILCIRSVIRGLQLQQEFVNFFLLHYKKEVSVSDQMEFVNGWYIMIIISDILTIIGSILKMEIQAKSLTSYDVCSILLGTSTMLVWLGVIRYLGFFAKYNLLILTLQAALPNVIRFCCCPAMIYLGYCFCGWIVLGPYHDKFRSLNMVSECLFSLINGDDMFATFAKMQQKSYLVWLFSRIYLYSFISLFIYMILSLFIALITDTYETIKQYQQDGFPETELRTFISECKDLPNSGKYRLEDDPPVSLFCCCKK
Assay: FLIPR membrane potential dye assay, HEK293 cells expressing A419P-TRPML3
Type: cell-based
Conditions: for effect on basal fluorescence, dose dependence: increasing concentrations of gadolinium, compared to RFP-transfected cells
From the text: Specific cell-based assays for the discovery of TRPML3 modulators were developed which that could ultimately be used in food and beverages to modulate saltiness perception. A419P-TRPML3 function was monitored in HEK293 cells transiently transfected or transduced with the gene encoding A419P-TRPML3 and using specific membrane potential dyes (FMPs; Molecular Devices).
(§1) HEK293 cells were transiently transfected with RFP, αENaC or A419P-TRPML3 and were loaded with a membrane potential dye (R-8034; Molecular Devices) in HBSS at room temperature for 30 minutes. Membrane potential (fluorescent signal) was monitored on a FLIPR system (Molecular Devices).
(§2) HEK293 cells were transiently transfected with RFP or A419P-TRPML3 and were loaded with a membrane potential dye (R-8034; Molecular Devices) in HBSS at room temperature for 30 minutes. Membrane potential (fluorescent signal) was monitored on a FLIPR system (Molecular Devices).
as §2, with “HBSS, NMDG and increasing concentrations of gadolinium were added to the cells and resulting changes in membrane” for “Membrane”
as §1, with “RFP, A419P-TRPML3 or” for “RFP,”, “plasmid” for “or A419P-TRPML3”, “HBSS (control), 3 mM gadolinium and 30 uM Amiloride were added to the cells and resulting changes in membrane” for “Membrane”

`[Cl][Gd]([Cl])[Cl]` [gadolinium, gadolinium chloride] was tested, and the “effect on basal fluorescence counts, specificity” value (3 mM gadolinium, A419P-TRPML3 versus αENaC transfected cells) was “preferentially reduces basal fluorescence counts”, the “effect on basal fluorescence, dose dependence” value was “significantly reduces the basal fluorescence” and the “effect on basal fluorescence, dose dependence” value (listed as Gadolinium) was “reversed the increase in fluorescence in a dose-dependent and specific fashion”. The “effect on basal fluorescence (membrane potential)” value (transiently transfected HEK293, single addition of gadolinium) was “significantly reduces the basal fluorescence”.
